Test system: 429239-143-T-J1-PDC complex spheroid viability
Assay: Anticancer human tumor 429239-143-T-J1-PDC patient-derived small cell lung carcinoma cell line growth inhibition [POLQ]
Settings: for IC50: curve of first compound; for viability, T/C: stronger effect = lower value
In short: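 Complex spheroid viability model combining PDC tumour cells with endothelial (HUVEC) and MSC stromal cells. Novobiocin, ART-558 or RP6685 were tested singly and in combination with standard and investigational anticancer drugs. Each was titrated in half-log steps from near clinical Cmax, or from 10 microM where Cmax was unknown.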

[1] = second compound 0.0316 µM, first compound 0.00316 µM
[2] = second compound 0.0316 µM, first compound 0.01 µM
[3] = second compound 0.0316 µM, first compound 0.0316 µM
[4] = second compound 0.0316 µM, first compound 0.1 µM
[5] = second compound 0.0316 µM, first compound 0.316 µM
[6] = second compound 0.0316 µM, first compound 1 µM
[7] = second compound 0.1 µM, first compound 0.00316 µM
[8] = second compound 0.1 µM, first compound 0.01 µM
[9] = second compound 0.1 µM, first compound 0.0316 µM
[10] = second compound 0.1 µM, first compound 0.1 µM
[11] = second compound 0.1 µM, first compound 0.316 µM
[12] = second compound 0.1 µM, first compound 1 µM
[13] = second compound 0.316 µM, first compound 0.00316 µM
[14] = second compound 0.316 µM, first compound 0.01 µM
[15] = second compound 0.316 µM, first compound 0.0316 µM
[16] = second compound 0.316 µM, first compound 0.1 µM
[17] = second compound 0.316 µM, first compound 0.316 µM
[18] = second compound 0.316 µM, first compound 1 µM
[19] = second compound 1 µM, first compound 0.00316 µM
[20] = second compound 1 µM, first compound 0.01 µM
[21] = second compound 1 µM, first compound 0.0316 µM
[22] = second compound 1 µM, first compound 0.1 µM
[23] = second compound 1 µM, first compound 0.316 µM
[24] = second compound 1 µM, first compound 1 µM
[25] = second compound 3.16 µM, first compound 0.00316 µM
[26] = second compound 3.16 µM, first compound 0.01 µM
[27] = second compound 3.16 µM, first compound 0.0316 µM
[28] = second compound 3.16 µM, first compound 0.1 µM
[29] = second compound 3.16 µM, first compound 0.316 µM
[30] = second compound 3.16 µM, first compound 1 µM
[31] = second compound 10 µM, first compound 0.00316 µM
[32] = second compound 10 µM, first compound 0.01 µM
[33] = second compound 10 µM, first compound 0.0316 µM
[34] = second compound 10 µM, first compound 0.1 µM
[35] = second compound 10 µM, first compound 0.316 µM
[36] = second compound 10 µM, first compound 1 µM
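Also: luminescence signal used as surrogate measure of viable cells; spheroids exposed to compounds for seven days before readout.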
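For viability, T/C in this document: 100% = DMSO vehicle control viability as luminescence relative to vehicle.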

CCc1c2c(nc3ccc(O)cc13)-c1cc3c(c(=O)n1C2)COC(=O)[C@]3(O)CC + COC1C(OC(N)=O)C(O)C(Oc2ccc3c(O)c(NC(=O)c4ccc(O)c(CC=C(C)C)c4)c(=O)oc3c2C)OC1(C)C
IC50 (second compound 0.0316 µM): < 3.16 nM
IC50 (second compound 0.1 µM): < 3.16 nM
IC50 (second compound 0.316 µM): < 3.16 nM
IC50 (second compound 1 µM): < 3.16 nM
IC50 (second compound 3.16 µM): < 3.16 nM
IC50 (second compound 10 µM): < 3.16 nM
viability, T/C [1]: 19.1%
viability, T/C [2]: 17.6%
viability, T/C [3]: 17.5%
viability, T/C [4]: 20%
viability, T/C [5]: 17.5%
viability, T/C [6]: 8.92%
viability, T/C [7]: 17%
viability, T/C [8]: 17.4%
viability, T/C [9]: 17.8%
viability, T/C [10]: 20.6%
viability, T/C [11]: 14%
viability, T/C [12]: 5.7%
viability, T/C [13]: 17.4%
viability, T/C [14]: 18.3%
viability, T/C [15]: 17.3%
viability, T/C [16]: 14.5%
viability, T/C [17]: 15.6%
viability, T/C [18]: 5.23%
viability, T/C [19]: 21.4%
viability, T/C [20]: 18.1%
viability, T/C [21]: 18%
viability, T/C [22]: 19.1%
viability, T/C [23]: 12.5%
viability, T/C [24]: 6.46%
viability, T/C [25]: 20.1%
viability, T/C [26]: 14.8%
viability, T/C [27]: 18.4%
viability, T/C [28]: 18.5%
viability, T/C [29]: 15.3%
viability, T/C [30]: 5.6%
viability, T/C [31]: 18.1%
viability, T/C [32]: 18.9%
viability, T/C [33]: 18.2%
viability, T/C [34]: 15.8%
viability, T/C [35]: 14.8%
viability, T/C [36]: 5.55%

CCc1c2c(nc3ccc(O)cc13)-c1cc3c(c(=O)n1C2)COC(=O)[C@]3(O)CC + Nc1ccc(C#CCN(C(=O)Cc2ncc(C(F)(F)F)cc2C(F)(F)F)c2ccc(F)cc2)nn1
IC50 (second compound 0.0316 µM): < 3.16 nM
IC50 (second compound 0.1 µM): < 3.16 nM
IC50 (second compound 0.316 µM): < 3.16 nM
IC50 (second compound 1 µM): < 3.16 nM
IC50 (second compound 3.16 µM): < 3.16 nM
IC50 (second compound 10 µM): < 3.16 nM
viability, T/C [1]: 12%
viability, T/C [2]: 8.29%
viability, T/C [3]: 7.72%
viability, T/C [4]: 6.64%
viability, T/C [5]: 4.44%
viability, T/C [6]: 1.99%
viability, T/C [7]: 10.2%
viability, T/C [8]: 7.32%
viability, T/C [9]: 7.97%
viability, T/C [10]: 6.96%
viability, T/C [11]: 4.07%
viability, T/C [12]: 3.28%
viability, T/C [13]: 8.87%
viability, T/C [14]: 7.47%
viability, T/C [15]: 6.42%
viability, T/C [16]: 7.02%
viability, T/C [17]: 6%
viability, T/C [18]: 3.04%
viability, T/C [19]: 8.25%
viability, T/C [20]: 8.49%
viability, T/C [21]: 7.35%
viability, T/C [22]: 7.22%
viability, T/C [23]: 4.56%
viability, T/C [24]: 1.52%
viability, T/C [25]: 8.61%
viability, T/C [26]: 7.3%
viability, T/C [27]: 8.79%
viability, T/C [28]: 8.33%
viability, T/C [29]: 4.53%
viability, T/C [30]: 2.41%
viability, T/C [31]: 6.48%
viability, T/C [32]: 7.39%
viability, T/C [33]: 8.55%
viability, T/C [34]: 6.94%
viability, T/C [35]: 4.47%
viability, T/C [36]: 1.68%

COc1cccc(OCCCN)c1-c1cc(Nc2cnc(C#N)cn2)n[nH]1 + Nc1ccc(C#CCN(C(=O)Cc2ncc(C(F)(F)F)cc2C(F)(F)F)c2ccc(F)cc2)nn1
IC50 (second compound 0.0316 µM): 398 nM
IC50 (second compound 0.1 µM): 305 nM
IC50 (second compound 0.316 µM): 219 nM
IC50 (second compound 1 µM): 224 nM
IC50 (second compound 3.16 µM): 234 nM
IC50 (second compound 10 µM): 160 nM
viability, T/C [1]: 91.8%
viability, T/C [2]: 94.8%
viability, T/C [3]: 87.6%
viability, T/C [4]: 72.7%
viability, T/C [5]: 55.2%
viability, T/C [6]: 33.3%
viability, T/C [7]: 95.1%
viability, T/C [8]: 97.2%
viability, T/C [9]: 83.1%
viability, T/C [10]: 71.3%
viability, T/C [11]: 49.4%
viability, T/C [12]: 28.7%
viability, T/C [13]: 103%
viability, T/C [14]: 98.9%
viability, T/C [15]: 98.7%
viability, T/C [16]: 65.3%
viability, T/C [17]: 45.4%
viability, T/C [18]: 33.6%
viability, T/C [19]: 102%
viability, T/C [20]: 90.2%
viability, T/C [21]: 83.8%
viability, T/C [22]: 68.8%
viability, T/C [23]: 40.3%
viability, T/C [24]: 27.1%
viability, T/C [25]: 105%
viability, T/C [26]: 89.1%
viability, T/C [27]: 90.6%
viability, T/C [28]: 74.5%
viability, T/C [29]: 40.3%
viability, T/C [30]: 24.5%
viability, T/C [31]: 102%
viability, T/C [32]: 86.5%
viability, T/C [33]: 75.7%
viability, T/C [34]: 60%
viability, T/C [35]: 36.2%
viability, T/C [36]: 26.1%

C=CCn1c(=O)c2cnc(Nc3ccc(N4CCN(C)CC4)cc3)nc2n1-c1cccc(C(C)(C)O)n1 + COC1C(OC(N)=O)C(O)C(Oc2ccc3c(O)c(NC(=O)c4ccc(O)c(CC=C(C)C)c4)c(=O)oc3c2C)OC1(C)C
IC50 (second compound 0.0316 µM): 576 nM
IC50 (second compound 0.1 µM): 464 nM
IC50 (second compound 0.316 µM): 591 nM
IC50 (second compound 1 µM): 580 nM
IC50 (second compound 3.16 µM): 632 nM
IC50 (second compound 10 µM): 600 nM
viability, T/C [1]: 105%
viability, T/C [2]: 93%
viability, T/C [3]: 104%
viability, T/C [4]: 104%
viability, T/C [5]: 85.7%
viability, T/C [6]: 17.1%
viability, T/C [7]: 92%
viability, T/C [8]: 104%
viability, T/C [9]: 92.6%
viability, T/C [10]: 105%
viability, T/C [11]: 66%
viability, T/C [12]: 17.8%
viability, T/C [13]: 110%
viability, T/C [14]: 88.2%
viability, T/C [15]: 107%
viability, T/C [16]: 118%
viability, T/C [17]: 82.5%
viability, T/C [18]: 22.7%
viability, T/C [19]: 95.3%
viability, T/C [20]: 83.5%
viability, T/C [21]: 101%
viability, T/C [22]: 88.7%
viability, T/C [23]: 82.2%
viability, T/C [24]: 21%
viability, T/C [25]: 98.8%
viability, T/C [26]: 90%
viability, T/C [27]: 94.2%
viability, T/C [28]: 96.3%
viability, T/C [29]: 97.1%
viability, T/C [30]: 20%
viability, T/C [31]: 91.7%
viability, T/C [32]: 83.2%
viability, T/C [33]: 85.1%
viability, T/C [34]: 83.7%
viability, T/C [35]: 84%
viability, T/C [36]: 22.8%

CCc1cc2c(N3CCc4c(cc(Cn5ccnc5)cc4-c4cn(C)nc4C(F)(F)F)C3=O)ccnc2c(OC)n1 + COC1C(OC(N)=O)C(O)C(Oc2ccc3c(O)c(NC(=O)c4ccc(O)c(CC=C(C)C)c4)c(=O)oc3c2C)OC1(C)C
IC50 (second compound 0.0316 µM): 2760 nM
IC50 (second compound 0.1 µM): 2630 nM
IC50 (second compound 0.316 µM): 2660 nM
IC50 (second compound 1 µM): 2270 nM
IC50 (second compound 3.16 µM): 1720 nM
IC50 (second compound 10 µM): 843 nM
viability, T/C [3]: 93.4%
viability, T/C [4]: 96.9%
viability, T/C [5]: 71.1%
viability, T/C [6]: 68.2%
viability, T/C (second compound 0.0316 µM, first compound 3.16 µM): 45.8%
viability, T/C (second compound 0.0316 µM, first compound 10 µM): 39.6%
viability, T/C [9]: 107%
viability, T/C [10]: 93%
viability, T/C [11]: 69.5%
viability, T/C [12]: 74%
viability, T/C (second compound 0.1 µM, first compound 3.16 µM): 42.3%
viability, T/C (second compound 0.1 µM, first compound 10 µM): 32.6%
viability, T/C [15]: 86.2%
viability, T/C [16]: 74.3%
viability, T/C [17]: 73.5%
viability, T/C [18]: 65.5%
viability, T/C (second compound 0.316 µM, first compound 3.16 µM): 45.1%
viability, T/C (second compound 0.316 µM, first compound 10 µM): 33.4%
viability, T/C [21]: 89.7%
viability, T/C [22]: 83.9%
viability, T/C [23]: 61.8%
viability, T/C [24]: 62%
viability, T/C (second compound 1 µM, first compound 3.16 µM): 49.2%
viability, T/C (second compound 1 µM, first compound 10 µM): 32.8%
viability, T/C [27]: 96.7%
viability, T/C [28]: 74.8%
viability, T/C [29]: 71.5%
viability, T/C [30]: 50.5%
viability, T/C (second compound 3.16 µM, first compound 3.16 µM): 46.4%
viability, T/C (second compound 3.16 µM, first compound 10 µM): 37.3%
viability, T/C [33]: 91.8%
viability, T/C [34]: 85.7%
viability, T/C [35]: 67.8%
viability, T/C [36]: 46.7%
viability, T/C (second compound 10 µM, first compound 3.16 µM): 40.2%
viability, T/C (second compound 10 µM, first compound 10 µM): 39.6%
